In PubChem BioAssay (NCI):
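Cultured in 96-well plates, cells were exposed to test compound for 48 hours across five concentrations. Abbreviation: GI50, concentration required for 50% inhibition of growth. TGI: total growth inhibition.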

Key:
Assay in all cases: NCI tumour cell line growth inhibition, 48 h
HCT-15 colon = test system: HCT-15 colon
MALME-3M melanoma = test system: MALME-3M melanoma
RXF 393 renal = test system: RXF 393 renal
HT29 colon = test system: HT29 colon
K-562 leukemia = test system: K-562 leukemia
A498 renal = test system: A498 renal
UACC-62 melanoma = test system: UACC-62 melanoma
UO-31 renal = test system: UO-31 renal
CCRF-CEM leukemia = test system: CCRF-CEM leukemia
SW-620 colon = test system: SW-620 colon

Question: For `Cc1ccc(Cl)cc1N=NC(=O)NNc1cc(Cl)ccc1C`, which TGI (HCT-15 colon) is on record?
Answer: 95.4 µM

Question: And the TGI (MALME-3M melanoma)?
Answer: 64.6 µM

Question: What about the TGI (RXF 393 renal) of the same compound?
Answer: 72.7 µM

Question: What about the TGI (HT29 colon) of the same compound?
Answer: 80.6 µM

Question: What about the TGI (K-562 leukemia) of the same compound?
Answer: > 100 µM

Question: And the TGI (A498 renal)?
Answer: 48.8 µM

Question: What about the TGI (UACC-62 melanoma) of the same compound?
Answer: 24.2 µM

Question: What about the TGI (UO-31 renal) of the same compound?
Answer: 35.7 µM

Question: What about the TGI (CCRF-CEM leukemia) of the same compound?
Answer: 54.4 µM

Question: Which results are given for `CCOC(=O)NC(Nc1cc(Cl)ccc1OC)(C(F)(F)F)C(F)(F)F`?
Answer: TGI (HCT-15 colon): > 100 µM; TGI (MALME-3M melanoma): > 100 µM; TGI (RXF 393 renal): > 100 µM; TGI (HT29 colon): > 100 µM; TGI (K-562 leukemia): > 100 µM; TGI (A498 renal): > 100 µM; TGI (UACC-62 melanoma): > 100 µM; TGI (UO-31 renal): > 100 µM; TGI (CCRF-CEM leukemia): > 100 µM; TGI (SW-620 colon): > 100 µM

Question: Which results are given for `COc1cccc2c1C(=O)c1c(O)c3c(c(O)c1C2=O)C[C@@](O)(C(=O)COC(=O)c1ccccc1)C[C@@H]3OC1CC(N)C(O)C(C)O1` (stereo partly drawn)?
Answer: GI50 (HCT-15 colon): 0.451 µM; TGI (HCT-15 colon): 1.76 µM; GI50 (MALME-3M melanoma): 0.136 µM; TGI (MALME-3M melanoma): 0.652 µM; GI50 (RXF 393 renal): 0.195 µM; TGI (RXF 393 renal): 0.859 µM; GI50 (HT29 colon): 0.102 µM; TGI (HT29 colon): 0.273 µM; GI50 (K-562 leukemia): 0.104 µM; TGI (K-562 leukemia): 0.327 µM; GI50 (A498 renal): 0.0771 µM; TGI (A498 renal): 0.261 µM; GI50 (UO-31 renal): 0.497 µM; TGI (UO-31 renal): 2.06 µM; GI50 (CCRF-CEM leukemia): 0.0427 µM; TGI (CCRF-CEM leukemia): 0.334 µM; GI50 (SW-620 colon): 0.0448 µM; TGI (SW-620 colon): 0.253 µM

Question: With `O=C(NN1C(=O)C(Cl)C1c1cccc([N+](=O)[O-])c1)c1ccccc1O` (stereo not drawn) as the compound, how does the TGI (MALME-3M melanoma) read?
Answer: > 100 µM

Question: And the TGI (RXF 393 renal)?
Answer: > 100 µM

Question: And the TGI (HT29 colon)?
Answer: > 100 µM

Question: What about the TGI (K-562 leukemia) of the same compound?
Answer: > 100 µM

Question: What about the TGI (UACC-62 melanoma) of the same compound?
Answer: > 100 µM

Question: And the TGI (UO-31 renal)?
Answer: > 100 µM

Question: And the TGI (CCRF-CEM leukemia)?
Answer: > 100 µM

Question: What about the TGI (SW-620 colon) of the same compound?
Answer: > 100 µM

Question: With `CCOC(=O)/C=C/c1c(C)[nH]c(=O)[nH]c1=O` as the compound, how does the TGI (HCT-15 colon) read?
Answer: > 250 µM

Question: And the TGI (MALME-3M melanoma)?
Answer: > 250 µM

Question: What about the TGI (RXF 393 renal) of the same compound?
Answer: > 250 µM

Question: What about the TGI (HT29 colon) of the same compound?
Answer: > 250 µM

Question: And the TGI (K-562 leukemia)?
Answer: > 250 µM

Question: And the TGI (A498 renal)?
Answer: > 250 µM

Question: And the TGI (UACC-62 melanoma)?
Answer: > 250 µM

Question: What about the TGI (UO-31 renal) of the same compound?
Answer: > 250 µM

Question: What about the TGI (CCRF-CEM leukemia) of the same compound?
Answer: > 250 µM

Question: What about the TGI (SW-620 colon) of the same compound?
Answer: > 250 µM

Question: `C/C(=N\NC(=S)N1CCC(N2CCCCC2)CC1)c1ccccn1` was tested. Which TGI (HCT-15 colon) did it give?
Answer: 6.13 µM

Question: What about the TGI (MALME-3M melanoma) of the same compound?
Answer: > 100 µM

Question: What about the TGI (RXF 393 renal) of the same compound?
Answer: 2.29 µM

Question: And the TGI (HT29 colon)?
Answer: 9.88 µM

Question: What about the TGI (K-562 leukemia) of the same compound?
Answer: > 100 µM

Question: And the TGI (A498 renal)?
Answer: 5.21 µM

Question: And the TGI (UACC-62 melanoma)?
Answer: 10.7 µM

Question: What about the TGI (UO-31 renal) of the same compound?
Answer: 3.3 µM

Question: What about the TGI (CCRF-CEM leukemia) of the same compound?
Answer: 34.3 µM

Question: And the TGI (SW-620 colon)?
Answer: 12.2 µM

Question: How did the TGI (HCT-15 colon) turn out when `O=C1C(CO)=C[C@H](O)[C@H]2O[C@@H]12` was run?
Answer: 278 µM

Question: What about the TGI (MALME-3M melanoma) of the same compound?
Answer: 319 µM

Question: And the TGI (RXF 393 renal)?
Answer: 402 µM

Question: And the TGI (HT29 colon)?
Answer: > 625 µM

Question: And the TGI (K-562 leukemia)?
Answer: 439 µM

Question: What about the TGI (A498 renal) of the same compound?
Answer: 519 µM

Question: What about the TGI (UACC-62 melanoma) of the same compound?
Answer: 215 µM

Question: What about the TGI (UO-31 renal) of the same compound?
Answer: 507 µM

Question: And the TGI (CCRF-CEM leukemia)?
Answer: 418 µM

Question: What about the TGI (SW-620 colon) of the same compound?
Answer: 284 µM

Question: Which TGI (HCT-15 colon) does the source give for `c1ccc2c(c1)NCc1cc3ccccc3nc1O2` here?
Answer: > 100 µM

Question: And the TGI (MALME-3M melanoma)?
Answer: > 100 µM

Question: What about the TGI (RXF 393 renal) of the same compound?
Answer: > 100 µM

Question: And the TGI (HT29 colon)?
Answer: > 100 µM

Question: And the TGI (K-562 leukemia)?
Answer: > 100 µM

Question: And the TGI (A498 renal)?
Answer: > 100 µM

Question: And the TGI (UACC-62 melanoma)?
Answer: > 100 µM

Question: And the TGI (UO-31 renal)?
Answer: > 31.6 µM

Question: What about the TGI (CCRF-CEM leukemia) of the same compound?
Answer: > 100 µM

Question: What about the TGI (SW-620 colon) of the same compound?
Answer: > 100 µM

Question: With `c1ccc2c(c1)c1ccccc1n2Cn1c2ccccc2c2ccccc21` as the compound, how does the TGI (HCT-15 colon) read?
Answer: > 100 µM

Question: What about the TGI (MALME-3M melanoma) of the same compound?
Answer: > 100 µM

Question: What about the TGI (RXF 393 renal) of the same compound?
Answer: > 100 µM

Question: What about the TGI (HT29 colon) of the same compound?
Answer: > 100 µM

Question: And the TGI (K-562 leukemia)?
Answer: > 100 µM

Question: What about the TGI (A498 renal) of the same compound?
Answer: > 100 µM

Question: And the TGI (UACC-62 melanoma)?
Answer: > 100 µM

Question: And the TGI (UO-31 renal)?
Answer: > 100 µM

Question: What about the TGI (CCRF-CEM leukemia) of the same compound?
Answer: > 100 µM

Question: And the TGI (SW-620 colon)?
Answer: > 100 µM

Question: How did the TGI (HCT-15 colon) turn out when `COc1cc(-c2ccc(N=Nc3ccc4c(S(=O)(=O)O)cc(S(=O)(=O)O)c(N)c4c3O)c(OC)c2)ccc1N=Nc1ccc2c(S(=O)(=O)O)cc(S(=O)(=O)O)c(N)c2c1O` was run?
Answer: > 100 µM

Question: What about the TGI (MALME-3M melanoma) of the same compound?
Answer: > 100 µM

Question: What about the TGI (RXF 393 renal) of the same compound?
Answer: > 100 µM

Question: What about the TGI (HT29 colon) of the same compound?
Answer: > 100 µM

Question: What about the TGI (K-562 leukemia) of the same compound?
Answer: > 100 µM

Question: What about the TGI (A498 renal) of the same compound?
Answer: > 100 µM

Question: And the TGI (UACC-62 melanoma)?
Answer: > 100 µM

Question: And the TGI (UO-31 renal)?
Answer: > 100 µM

Question: What about the TGI (CCRF-CEM leukemia) of the same compound?
Answer: > 100 µM

Question: And the TGI (SW-620 colon)?
Answer: > 100 µM

Question: Which results are given for `O=C1CCC[C@H]2O[C@@H](COC(=O)c3ccccc3)C[C@H]2O1`?
Answer: TGI (HCT-15 colon): > 100 µM; TGI (HT29 colon): > 100 µM; TGI (K-562 leukemia): > 100 µM; TGI (A498 renal): > 100 µM; TGI (UACC-62 melanoma): > 100 µM; TGI (UO-31 renal): > 100 µM; TGI (CCRF-CEM leukemia): > 100 µM; TGI (SW-620 colon): > 100 µM

Question: With `c1cc2c3c(c1)c1cc4c(cc1c[n+]3CC2)OCO4` as the compound, how does the TGI (HCT-15 colon) read?
Answer: > 225 µM

Question: What about the TGI (MALME-3M melanoma) of the same compound?
Answer: 3.88 µM

Question: What about the TGI (RXF 393 renal) of the same compound?
Answer: 32.5 µM

Question: What about the TGI (HT29 colon) of the same compound?
Answer: 67 µM

Question: What about the TGI (K-562 leukemia) of the same compound?
Answer: 32.3 µM

Question: And the TGI (A498 renal)?
Answer: 14.9 µM

Question: What about the TGI (UACC-62 melanoma) of the same compound?
Answer: 16 µM

Question: And the TGI (UO-31 renal)?
Answer: > 176 µM

Question: What about the TGI (CCRF-CEM leukemia) of the same compound?
Answer: 35.8 µM

Question: What about the TGI (SW-620 colon) of the same compound?
Answer: 109 µM

Question: How did the TGI (HCT-15 colon) turn out when `O=C(N/N=C\c1cccc2ccccc12)Nc1ccccc1` was run?
Answer: > 100 µM

Question: What about the TGI (MALME-3M melanoma) of the same compound?
Answer: > 100 µM

Question: And the TGI (RXF 393 renal)?
Answer: > 100 µM

Question: And the TGI (HT29 colon)?
Answer: > 100 µM

Question: And the TGI (K-562 leukemia)?
Answer: > 100 µM

Question: And the TGI (A498 renal)?
Answer: > 100 µM

Question: What about the TGI (UACC-62 melanoma) of the same compound?
Answer: > 100 µM

Question: What about the TGI (UO-31 renal) of the same compound?
Answer: > 100 µM

Question: And the TGI (CCRF-CEM leukemia)?
Answer: > 100 µM

Question: And the TGI (SW-620 colon)?
Answer: > 100 µM
